Laboratory results taken from US20070004620A1, “Fp receptor antagonists or pgf2 alpha antagonists for treating pathological conditions of the uterus” (priority 2002, published 2007).
Entries after “also recorded” stand apart in the source; their conditions may differ.

Legend:
PGF2α receptor = details: cited from earlier work
TP = biological target: T1, TP (Homo sapiens, UniProt P21731); details: 10 μM; cited from earlier work
T1 sequence (P21731 1-343): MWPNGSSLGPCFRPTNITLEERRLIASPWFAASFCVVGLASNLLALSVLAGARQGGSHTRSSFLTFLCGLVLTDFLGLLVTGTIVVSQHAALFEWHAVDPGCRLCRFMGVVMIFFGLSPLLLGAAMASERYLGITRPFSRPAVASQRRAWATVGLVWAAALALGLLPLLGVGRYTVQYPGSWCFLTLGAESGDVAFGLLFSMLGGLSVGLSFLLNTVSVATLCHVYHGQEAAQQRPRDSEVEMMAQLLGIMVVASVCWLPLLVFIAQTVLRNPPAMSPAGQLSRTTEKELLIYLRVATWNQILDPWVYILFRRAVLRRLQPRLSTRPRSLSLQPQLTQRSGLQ

DP = biological target: T2, DP (Homo sapiens, UniProt Q13258); details: 10 μM; cited from earlier work
T2 sequence (Q13258 1-359): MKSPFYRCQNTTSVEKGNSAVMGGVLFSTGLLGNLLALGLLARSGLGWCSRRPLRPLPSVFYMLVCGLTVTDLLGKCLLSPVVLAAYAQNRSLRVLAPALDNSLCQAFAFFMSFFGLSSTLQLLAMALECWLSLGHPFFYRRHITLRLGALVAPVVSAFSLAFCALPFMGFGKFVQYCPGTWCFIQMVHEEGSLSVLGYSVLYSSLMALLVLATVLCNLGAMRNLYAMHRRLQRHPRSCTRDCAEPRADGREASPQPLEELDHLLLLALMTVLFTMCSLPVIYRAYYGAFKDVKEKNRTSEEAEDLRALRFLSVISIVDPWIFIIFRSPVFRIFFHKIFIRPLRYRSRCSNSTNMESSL

EP2 = EP2 (Homo sapiens, UniProt P43116); details: 10 μM; cited from earlier work
Chain of EP2 (P43116 whole entry): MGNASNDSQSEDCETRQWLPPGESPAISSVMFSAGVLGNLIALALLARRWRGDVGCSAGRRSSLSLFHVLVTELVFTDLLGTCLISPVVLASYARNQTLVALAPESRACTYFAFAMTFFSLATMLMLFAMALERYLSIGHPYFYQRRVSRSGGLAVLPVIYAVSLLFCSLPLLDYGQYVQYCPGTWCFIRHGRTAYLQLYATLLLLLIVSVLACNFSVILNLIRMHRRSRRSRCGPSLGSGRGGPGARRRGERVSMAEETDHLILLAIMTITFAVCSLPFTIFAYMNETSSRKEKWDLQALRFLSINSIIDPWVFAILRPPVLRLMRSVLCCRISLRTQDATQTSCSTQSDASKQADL

EP4 = EP4 (Homo sapiens, UniProt P35408); details: 10 μM; cited from earlier work
Chain of EP4 (P35408 whole entry): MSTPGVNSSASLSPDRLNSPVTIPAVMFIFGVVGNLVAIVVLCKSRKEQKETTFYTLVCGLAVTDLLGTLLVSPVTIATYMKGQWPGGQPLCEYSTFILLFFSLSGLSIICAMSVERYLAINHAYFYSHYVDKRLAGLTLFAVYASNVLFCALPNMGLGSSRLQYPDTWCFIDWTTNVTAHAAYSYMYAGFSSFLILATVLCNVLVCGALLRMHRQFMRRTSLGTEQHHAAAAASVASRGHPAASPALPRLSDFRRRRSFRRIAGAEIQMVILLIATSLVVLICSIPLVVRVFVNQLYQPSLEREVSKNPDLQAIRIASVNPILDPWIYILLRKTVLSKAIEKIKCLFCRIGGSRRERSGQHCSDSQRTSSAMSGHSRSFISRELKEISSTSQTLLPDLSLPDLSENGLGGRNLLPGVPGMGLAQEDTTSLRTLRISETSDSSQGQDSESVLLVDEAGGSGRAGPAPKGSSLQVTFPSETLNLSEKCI

Ishikawa cells [1] = assay: Proliferation assay (BrdU incorporation ELISA) in Ishikawa cells; format: cell-based, human; details: U73122 2μM, no PGF2α
Experimental: Proliferation of Ishikawa cells was determined using a BrdU incorporation ELISA (Roche Diagnostics GmbH, Mannheim, Germany). Briefly, Ishikawa cells were seeded at 5×10^3 cells per well in a 96-well plate and allowed to adhere overnight. Cells were next starved for 24 hr with indomethacin 1.5 μg/ml before 24 h PGF2α treatment (1 nM-1 μM) in serum-free medium containing indomethacin. Inhibitors were added to cells for 60 min before PGF2α with the control well receiving the same concentration of vehicle. Following 24 h treatment, cells were labelled with BrdU for 4 h, then fixed and assayed for BrdU incorporation using standard immunohistochemical techniques. Results were plotted as percentages of untreated cells.

human endometrium = assay: Total inositol phosphate (InsP) assay in human endometrium tissue; format: cell-based
Experimental: (§1) PGF2α stimulation of total InsP production was as described (21). Briefly, tissue samples or Ishikawa cells were incubated with inositol free DMEM containing 1% dialyzed heat-inactivated FCS and 0.5 μCi/well myo-[^3H]inositol (Amersham Pharmacia Biotech) for 48 hours. Medium was removed, and cells washed with 1 ml buffer (140 mM NaCl, 20 mM HEPES, 4 mM KCl, 8 mM glucose, 1 mM MgCl2, 1 mM CaCl2, 1 mg/ml bovine serum albumin) containing 10 mM LiCl. Cells were then incubated for 1 hour at 37° C. in 1 ml buffer with or without inhibitors. Following incubation agonist was added at the required concentration and cells incubated for 1 hour. Reactions were terminated by the removal of agonist and the addition of 500 μl ice cold 10 mM formic acid, which was incubated for 30 minutes at 4° C. Total [^3H] inositol phosphates was separated from the formic acid cell extracts on AG 1-X8 anion exchange resin (Bio-Rad) and eluted with a 1 M ammonium formate/0.1 M formic acid solution. The associated radioactivity was determined by liquid scintillation counting and plotted relative to protein concentrations determined using the modified Lowry method.

Ishikawa cells [2] = assay: Total inositol phosphate (InsP) assay in Ishikawa cells; format: cell-based, human; details: PGF2α 100 nM
Experimental: as §1

Ishikawa cells [3] = assay: ERK phosphorylation in Ishikawa cells; format: cell-based, human; details: 100 nM, treatment for 10 min
Experimental: ERK phosphorylation in Ishikawa cells. PGF2α 100 nM was incubated for 10 and 30 min. U73122 2 μM was pre-incubated for 60 min before treatment with PGF2α.

HCT-8 = HCT-8 human colon adenocarcinoma cell line; cited from earlier work
HT-29 = HT-29 human colon adenocarcinoma cell line; cited from earlier work

In the case of `Cc1ccc(S(=O)(=O)NC(=O)NN2CCCCCC2)cc1` [tolazamide], the “antagonist activity at the PGF2α (FP) receptor” value (“antagonist activity at the PGF2α” below) (PGF2α receptor) is given as “very weak antagonists”.

For `CCCCC(F)[C@H](O)/C=C/[C@H]1CC[C@H](O)[C@@H]1C/C=C\CCCC(=O)O` (stereo partly drawn) [AL-3138, 11-deoxy-16-fluoro PGF2α], the “agonist activity at the PGF2α (FP) receptor” value (PGF2α receptor) is given as “weak partial agonist; also recorded: partial agonist of low efficacy” and the “antagonist activity at the PGF2α” value (PGF2α receptor) is given as “highly selective antagonist”.

For `O=C(O)CCC/C=C\C[C@@H]1[C@@H](/C=C/[C@H](O)C2Cc3ccccc3C2)[C@@H](F)C[C@@H]1O` [AL-8810, (5Z, 13E)-(9S,11S,15R)-9,15-dihydroxy-11-fluoro-15-(2-indanyl)-16,17,18,19,20-pentanor-5,13-prostadienoic acid], the “inhibition of functional responses of TP” value (TP) is given as “not to significantly inhibit”, the “inhibition of functional responses of DP” value (DP) is given as “not to significantly inhibit” and the “inhibition of functional responses of EP2” value (EP2) is given as “not to significantly inhibit”. For the same compound, the “inhibition of functional responses of EP4” value (EP4) was “not to significantly inhibit”, the “FP receptor antagonist potency” value (PGF2α receptor) was “micromolar” and the “agonist activity at the PGF2α (FP) receptor” value (PGF2α receptor) was “weak partial agonist”. The “antagonist activity at the PGF2α” value (PGF2α receptor) was “highly selective antagonist”.

In the case of `COc1ccc2c(c1)CC[C@@H]1[C@@H]2CC[C@]2(C)[C@@H](NCCCCCCN3C(=O)C=CC3=O)CC[C@@H]12` [U73122], the “basal proliferation after pre-incubation with inhibitor” value (Ishikawa cells [1]) is reported as 93.9±1.9%.

In the case of `CCCCNC(=O)NS(=O)(=O)c1ccc(C)cc1` [tolbutamide], the “antagonist activity at the PGF2α” value (PGF2α receptor) is given as “very weak antagonists”.

In the case of prostaglandin F2α [PGF2α], the “concentration at which maximal InsP mobilisation was observed” value (human endometrium) is reported as 100 nM, the “total InsP, maximum” value (Ishikawa cells [2]) is reported as 29 cpm/mg protein and the “fold increase in phosphorylated ERK intensity compared to native ERK” value (Ishikawa cells [3]) is reported as 6.6±0.7 fold. The “proliferation by PGF2α” value (HCT-8) was “lack of proliferation” and the “proliferation by PGF2α” value (HT-29) was “lack of proliferation”.
